Our source for the TGI values is PubChem BioAssay (NCI).

The structures appear in SMILES notation.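 Step 1: Grow cells in 96-well plates. Step 2: Expose to compound for 48 hours at 5 concentrations. Step 3: Interpolate endpoints linearly; if unreached, use highest concentration. Definition used: TGI = concentration required for complete inhibition of growth.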 A value given as a limit tells only on which side of the number the result lay.

For orientation: TGI means the concentration giving total growth inhibition.

Holding throughout (experiment): DTP human tumour cell line panel, 48 h
In test [1] the test system is A498 renal.
Test [2] has as its system BT-549 breast.
For test [3], the system named is CAKI-1 renal.
The subject of test [4] is COLO 205 colon.
Test [5] deals with HOP-62 NSCLC.
In test [6] the test system is HT29 colon.
For test [7], the system named is IGROV1 ovarian.
Test [8] has as its system K-562 leukemia.
The test system of test [9] is MOLT-4 leukemia.
Test [10] relates to NCI-H226 lung.
Test [11] relates to NCI-H460 lung.
In test [12] the test system is OVCAR-5 ovarian.
The subject of test [13] is RPMI-8226 leukemia.
For test [14], the system named is SF-295 CNS.
Test [15] deals with SN12C renal.
Test [16] deals with SNB-19 CNS.
In test [17] the test system is SR leukemia.
The subject of test [18] is TK-10 renal.
The test system of test [19] is U251 CNS.
Test [20] has as its system UACC-62 melanoma.

As to `CC(C)N(c1cc2c(cc1F)c(=O)c(C(=O)O)cn2-c1ccc(N2CCN(C)CC2)cn1)C(C)C`, the TGI in test [1], in test [2], in test [3], in test [4], in test [5] and in test [6] was above 100 µM in each case. Further, the TGI in [7], in [8], in test [9], in test [10], in test [11] and in test [12] was above 100 µM in each case. Moreover, the TGI in test [13], in test [14], in test [15], in test [16], in test [17] and in test [18] was above 100 µM in each case. Moreover, in test [19], the concentration for total growth inhibition (TGI) was above 100 µM.
In the case of `COc1ccccc1N1C(=O)/C(=C\c2cc(OC)c(OC)c(OC)c2)S(=O)(=O)C1c1ccccc1` (configuration not stated), the TGI in test [1], in test [2], in [3], in [4], in test [5] and in [8] was above 100 µM throughout. Also, the TGI was above 100 µM in test [9]; above 100 µM in test [10]; above 100 µM in test [11]; 57.1 µM in test [13]; above 100 µM in [14]; above 100 µM in test [15]. For the same molecule, the concentration for total growth inhibition (TGI) in [16], in [17], in test [18], in test [19] and in [20] was above 100 µM each time.
With `COc1ccc(N2C(=O)/C(=C\c3cc(OC)c(OC)c(OC)c3)S(=O)(=O)C2c2ccccc2)cc1` (configuration not stated), the TGI was above 100 µM in [1]; above 100 µM in test [2]; above 100 µM in [3]; 41.6 µM in [4]; above 100 µM in [5]; above 100 µM in test [8]. Moreover, the TGI in test [9], in test [10], in test [11], in test [13], in test [14] and in [15] was above 100 µM in each case. Also, the concentration for total growth inhibition (TGI) in [16], in test [17], in test [18], in test [19] and in test [20] was above 100 µM each time.
Regarding `CCn1c(SCC(=O)NNC(=S)Nc2ccc(F)cc2)nc2ccccc2c1=O`, the TGI in [1], in [2], in test [4], in test [5], in test [6] and in [7] was above 100 µM each time. Moreover, the concentration for total growth inhibition (TGI) in [8], in test [9], in [10], in test [12], in [13] and in test [14] was above 100 µM each time. Also, the concentration for total growth inhibition (TGI) in test [15], in test [16], in [17], in test [18], in [19] and in test [20] was above 100 µM in each case.
As to `NC(=S)N/N=C(/C(=O)Nc1nc2ccc([N+](=O)[O-])cc2s1)C1C(=O)NC(=S)NC1=O`, the TGI in test [1], in [2], in test [3], in test [4], in [6] and in [8] was above 100 µM each time. For the same molecule, the TGI in test [9], in test [10], in [11], in test [12], in test [13] and in [14] was above 100 µM each time. Further, the total growth inhibition concentration (TGI) in [15], in test [16], in [17], in [19] and in [20] was above 100 µM throughout.
With `COC(=O)c1cc(C#N)[nH]c1-c1cccs1`, the TGI in test [1] was 86 µM; in [2], above 100 µM; in test [3], above 100 µM; in [4], above 100 µM; in test [5], above 100 µM; in [8], above 100 µM. Besides, the TGI in [9], in [10], in [11], in test [12], in test [13] and in test [14] was above 100 µM throughout. The TGI in [15], in [16], in test [17], in [19] and in [20] was above 100 µM in each case.
For `CCn1c(=O)c2c3ccc(O)cc3oc2c2ccc(O)cc21`, the total growth inhibition concentration (TGI) in test [1] was 84.5 µM; in test [2] it was above 100 µM; in test [3], above 100 µM; in test [4] it was above 100 µM; in [5], above 100 µM; in test [6], above 100 µM. The TGI in [7], in [8], in test [9], in test [10], in test [11] and in [14] was above 100 µM each time. The TGI in test [15], in test [16], in test [17], in test [18], in [19] and in test [20] was above 100 µM each time.
Take `COc1cc(/C=C2\N=C(c3ccccc3)N(/N=C/c3cc4cc(C)ccc4nc3Cl)C2=O)cc(OC)c1OC`: the TGI in test [1] is above 100 µM; in test [2], above 100 µM; in [3], above 100 µM; in [4] it was 63.7 µM; in test [5] it was above 100 µM; in [6] it was above 100 µM. For the same molecule, the TGI is above 100 µM in [7]; above 100 µM in test [8]; 51 µM in test [9]; above 100 µM in test [11]; above 100 µM in test [12]; 42.8 µM in test [13]. Besides, the TGI in test [14] was above 100 µM; in [15], above 100 µM; in test [16] it was above 100 µM; in test [17], 57.4 µM; in [18], above 100 µM; in test [19], 51 µM. The molecule also yielded a TGI in test [20] above 100 µM.
Take `Cc1nc2ccc(N=NN(C)C)cc2[nH]1`: the TGI in test [1], in test [2], in test [3], in [4], in test [5] and in test [6] was above 100 µM in each case. The concentration for total growth inhibition (TGI) in [7], in test [9], in [10], in test [11], in test [12] and in [13] was above 100 µM throughout. The total growth inhibition concentration (TGI) in [14], in [15], in [16], in test [17], in test [18] and in [19] was above 100 µM throughout. The molecule further came in with a TGI in test [20] above 100 µM.
On to `COC(=O)[C@]12CSC[C@H]1C[C@H](c1ccc(N(C)C)cc1)N2`, for which the concentration for total growth inhibition (TGI) in test [1], in test [2], in test [3], in test [4], in test [5] and in test [7] was above 100 µM throughout. Moreover, the total growth inhibition concentration (TGI) in test [8] is above 100 µM; in test [9] it was above 100 µM; in [10] it was above 100 µM; in [11], above 100 µM; in [12] it was above 100 µM; in [13] it was above 31.6 µM. For the same molecule, the TGI in test [14], in test [15], in test [16], in test [17], in test [18] and in test [19] was above 100 µM in each case. For the same molecule, the concentration for total growth inhibition (TGI) in [20] is above 100 µM.
For `CCCCc1ccc(N2C(=O)c3cccnc3S2(=O)=O)cc1`, the concentration for total growth inhibition (TGI) in test [1], in test [2], in [3], in test [4], in test [5] and in [6] was above 100 µM in each case. In addition, the TGI in [7], in test [8], in [9], in test [10], in test [11] and in [12] was above 100 µM each time. The concentration for total growth inhibition (TGI) in test [13], in [14], in [15], in test [16], in test [17] and in test [19] was above 100 µM each time. In test [20], the TGI is above 100 µM.
As for `CC(CCC(=O)O)[C@H]1CCC2[C@H]3C(CC(=O)[C@@]21C)[C@@]1(C)CCC(O)C[C@H]1C[C@@H]3O` (some centres not stated), the TGI in [1], in test [2], in test [3], in test [4], in test [5] and in [6] was above 100 µM throughout. Further, the concentration for total growth inhibition (TGI) in test [7], in test [8], in test [9], in [10], in test [11] and in test [12] was above 100 µM each time. For the same molecule, the concentration for total growth inhibition (TGI) in test [13], in test [15], in test [16], in test [17], in [19] and in [20] was above 100 µM in each case.
`O=c1[nH]c(=O)n(C2CC(O)C(CO)O2)c2nc3ccc4ccccc4c3nc12` (configuration not stated): the TGI in test [1] is above 100 µM; in [2] it was above 100 µM; in test [3], above 100 µM; in test [4] it was above 100 µM; in test [5] it was 98.3 µM; in test [7] it was above 100 µM. The TGI in test [8] is above 100 µM; in test [9] it was 54.3 µM; in test [10], above 100 µM; in [11], above 100 µM; in [12], above 100 µM; in test [13], 76 µM. Further, the TGI in test [14], in test [15], in test [16], in test [17], in test [18] and in [19] was above 100 µM in each case. The molecule also returned a TGI in test [20] above 100 µM.
Take `Cc1ccc(S(=O)(=O)n2cnc(CC(NC(=O)C3CCC(=O)N3C(=O)OCc3ccccc3)C(=O)N3CCCC3C(=O)NN)c2)cc1` (configuration not stated): the concentration for total growth inhibition (TGI) in test [1], in test [2], in test [4], in [5], in [6] and in test [7] was above 100 µM throughout. For the same molecule, the concentration for total growth inhibition (TGI) in test [8], in [9], in test [10], in test [11], in test [12] and in [13] was above 100 µM each time. Moreover, the TGI in test [15], in test [16], in test [17], in [18] and in test [19] was above 100 µM in each case.
As for `COC(=O)C(Cc1c[nH]c2ccccc12)NP(=O)(O)OCC1OC(n2cc(F)c(=O)[nH]c2=O)CC1O` (configuration not stated), the TGI in test [1], in [2], in test [4], in test [5], in [6] and in test [7] was above 100 µM throughout. In addition, the TGI in test [8], in test [9], in test [10], in test [11], in [12] and in test [13] was above 100 µM each time. The TGI in [14] was above 100 µM; in test [15], above 100 µM; in test [16] it was above 100 µM; in test [17], above 51.9 µM; in [18], above 100 µM; in test [19] it was above 100 µM. The total growth inhibition concentration (TGI) in test [20] was above 100 µM.
